For two compounds, Ki results are on record in ChEMBL document CHEMBL1136931, “Discovery of low nanomolar and subnanomolar inhibitors of the mycobacterial beta-carbonic anhydrases Rv1284 and Rv3273” (J Med Chem, 2009).

Experiment [1] deals with T1, Beta-carbonic anhydrase 1 (Mycobacterium tuberculosis, UniProt P9WPJ7).
T1 sequence (P9WPJ7 whole entry): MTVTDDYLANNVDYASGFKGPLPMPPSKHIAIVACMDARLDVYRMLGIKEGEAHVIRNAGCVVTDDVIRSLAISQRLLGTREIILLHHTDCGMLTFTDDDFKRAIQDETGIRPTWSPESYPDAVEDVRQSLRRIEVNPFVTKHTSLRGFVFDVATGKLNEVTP

A further experiment addresses Carbonic anhydrase 1 (Homo sapiens, UniProt P00915).
A further experiment has as its target Carbonic anhydrase 2 (Homo sapiens, UniProt P00918).

As a reminder, the pKi is the Ki on a negative log10 scale, so that one unit is a factor of ten. A lower pKi goes with a large Ki.

pKi: −log10 of the molar value.

Sequence of Carbonic anhydrase 1 (P00915 whole entry): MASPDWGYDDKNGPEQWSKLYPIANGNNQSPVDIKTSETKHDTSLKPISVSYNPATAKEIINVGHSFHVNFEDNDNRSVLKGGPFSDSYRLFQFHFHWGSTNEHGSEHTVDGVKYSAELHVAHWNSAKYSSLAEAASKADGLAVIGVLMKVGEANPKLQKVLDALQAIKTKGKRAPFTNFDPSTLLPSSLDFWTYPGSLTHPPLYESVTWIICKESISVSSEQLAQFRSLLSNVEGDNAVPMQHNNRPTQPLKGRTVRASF

For `NC(=O)c1[nH]c2ccc(S(N)(=O)=O)cc2c1-c1ccccc1`, the pKi is 8.12 in experiment [1], 7.32 on Carbonic anhydrase 1 and 7.51 at Carbonic anhydrase 2.
On to `NS(=O)(=O)c1ccc(S(=O)(=O)Nc2cccc3c(Cl)c[nH]c23)cc1`, for which the negative-log Ki (pKi) at Carbonic anhydrase 1 is 7.01.
